Experimental data reported in a melting point compilation (Tetko et al.; mined from patent text by program, amines drawn as free bases though some values may be those of a salt).

Row | Structure (SMILES) | melting point [°C]
1 | Cc1ccc2c(c1)C(=O)C(=O)N2CC(N)=O | 171 to 172
2 | C(#Cc1cccnc1)C1=CCN(Cc2c[nH]c3ncccc23)CC1 | 170 to 172
3 | Fc1ccccc1-c1noc2c(Cl)c(OCc3nnn[nH]3)ccc12 | 198 to 200
4 | COC(=O)c1cc(Br)n2c1CN(C(=O)OC(C)(C)C)CC2 | 109
5 | SC1CCn2c(CCc3ccccc3)nc3cccc1c32 (stereo unspecified) | 75.7 to 78.8
6 | CN(C=O)C1CCN(CC2=Cc3ccccc32)CC1 | 86 to 88
7 | OCCOCC(O)c1ccc2sccc2c1 (stereo unspecified) | 119 to 120
8 | CC(=O)NCc1ccc(C(=O)CBr)s1 | 129 to 131
9 | CC(/C=C/C1=C(c2ccc3c(c2)C(C)(C)CCC3(C)C)CCCC1)=C\C(=O)O | 198 to 199
10 | C(=C(c1ccccc1)c1ccccc1)c1ccc2c(c1)Cc1ccccc1-2 | 136 to 138
11 | Cc1cc(C(=N)NO)cc(C)c1OCCCc1ccco1 | 100 to 101
12 | Cc1cc(Cl)cc2c1OCCCC2NS(C)(=O)=O (stereo unspecified) | 154 to 156
13 | CCOC(=O)Nc1ccc2c(c1)c1c(n2Cc2cccc(F)c2)CC[C@@H](NC(=O)C(C)C)C1 | 169 to 171
14 | CS(=O)(=O)c1ccc(Oc2ccc(C(=O)c3ccccc3)cc2)nc1 | 130 to 132
15 | COc1ccccc1-c1ccc2cnc(Nc3ccc(OCCN4CCOCC4)cc3)nn12 | 133 to 135
16 | Cc1cc(I)cc(C)c1Oc1ccc([N+](=O)[O-])c(Nc2ccc(C#N)cc2)n1 | 162 to 165
17 | CCCn1nnc(-c2cnc3ccccn3c2=O)n1 | 115 to 116
18 | CC(C#N)c1ccc2oc(=S)[nH]c2c1 (stereo unspecified) | 173 to 176
19 | CN(C)CCCn1c(-c2ccccc2)cc2ccccc21 | 52
20 | Cc1cc(-c2ccc(Cl)c(Cl)c2)nc(-n2cnc(-c3ccc(S(N)(=O)=O)s3)c2)n1 | 254
21 | CCS(=O)(=O)/C=C/c1ccc2[nH]cc(C3CCN(C)CC3)c2c1 | 98 to 102
22 | COC(=O)CCCc1cc2c(Nc3cc(OC)c(OC)c(OC)c3)c(C#N)cnc2s1 | 101 to 103
23 | Cc1ccc(-c2cn(C)c(-c3nc(-c4ccc(C)s4)cn3C)n2)s1 | 220 to 228
24 | COC(=O)COc1ccc(OCCC2CCN(c3ccncc3)CC2)cc1 | 86 to 88
25 | Nc1ccc2c(-c3ccccc3)c([N+](=O)[O-])oc2c1 | 212 to 214
26 | Cc1c(F)cc2c(=O)c(C(=O)O)cn(C3CC3)c2c1F | 208 to 210

Row | Structure (SMILES) | melting point [°C]
27 | O=S(=O)(c1ccc(Br)s1)N1CCN(c2ccc(F)cc2)CC1 | 123 to 124
28 | COc1cc(OC)nc(-n2ncn(N)c2=O)n1 | 238
29 | CCC1C(=O)Nc2ccc3ccccc3c21 (stereo unspecified) | 124 to 126
30 | CC(C)OC(=O)c1cc(-n2c(=O)c3c(n(C)c2=O)CCCC3)c(F)cc1Cl | 113 to 115
31 | COC(=O)Cn1nnc(N)n1 | 127 to 128
32 | OC1=Cc2ccccc2C=Cc2ccccc21 | 120 to 121
33 | Cc1cccc(Nc2c([N+](=O)[O-])cc(C(=O)O)cc2S(N)(=O)=O)c1 | 256 to 259
34 | C=CCNC(=O)CCNc1nc(NCC=C)nc2c(C)csc12 | 95 to 96
35 | Cn1nc2ccccc2c1S(N)(=O)=O | 181 to 183
36 | O=C1CC(c2cccc3c2OCO3)=Nc2ccc(N3CCCC3)cc21 | 330 to 332
37 | CCC(O)(Cn1cncn1)c1ccc(Oc2ccc(Cl)cc2)cc1Cl (stereo unspecified) | 140 to 142
38 | Cc1coc2c1C(=O)CC(c1ccc(F)cc1F)C2 (stereo unspecified) | 101 to 102
39 | CC1(C)N=C(c2ccccc2Cl)c2cc([N+](=O)[O-])ccc2NC1=O | 125 to 127
40 | CCCCCCCC(=O)NCCCCO | 76 to 77
41 | CC1=C(C(=O)Nc2ccc(Cl)cc2)SCCS1 | 115 to 117
42 | Cn1cncc1C(O)c1ccc2c(c1)c(-c1cccc(Cl)c1)nc1nnnn12 (stereo unspecified) | 190
43 | CCc1cc2c(=O)c3cccc(C(=O)OCOC(=O)C(C)(C)C)c3n(Cc3ccc(-c4ccccc4-c4nnn[nH]4)cc3)c2s1 | 146 to 152
44 | CCN(CC)CC1CN(c2c(F)cc3c(=O)c(C(=O)O)cn(C4CC4)c3c2F)CCO1 (stereo unspecified) | 155 to 157
45 | Cc1ccc(-c2cc(-c3ccccc3)c(-c3ccccc3)s2)cc1 | 110 to 112
46 | CC(=O)OCC(=O)C1C(C)CC2C3CC(Cl)C4=CC(=O)C=CC4(C)C3C(O)CC21C (stereo unspecified) | 208
47 | Cc1cccc2nc(Cn3cnc4c(N)ncnc43)n(-c3ccccc3C(C)C)c(=O)c12 | 258
48 | O=C(O)c1ccc(-c2nc(-c3cc(Cl)sc3Cl)cs2)cc1 | 266 to 267
49 | CCOC(=O)C(CC)Nc1ccc2ccccc2c1 (stereo unspecified) | 81 to 83
50 | N[C@@H]1CCN(Cc2ccccc2)C[C@H]1O (relative stereo) | 74.1
51 | COc1cc2c(cc1OC)C(C)=[N+]([O-])C(c1ccco1)N2 (stereo unspecified) | 191 to 195
52 | O=C(O)[C@@H]1Cc2c(ncn2Cc2ccccc2)CN1C(=O)C(c1ccc(Cl)cc1)c1ccc(Cl)cc1 | 162 to 170

Row | Structure (SMILES) | melting point [°C]
53 | COc1ccc(C2=NN(C3CCN(S(=O)(=O)c4cccc5c(N(C)C)cccc45)CC3)C(=O)[C@@H]3CC=CC[C@H]23)cc1OC | 198 to 200
54 | COc1cc(CCC(=O)CC(=O)c2ccc3ccccc3c2)ccc1O | 101 to 102
55 | CCCCOc1cc(-c2cc3ccccc3[nH]2)ccc1O | 163
56 | COc1cccc(-c2ccc(NC(=O)OC(C)(C)C)c([N+](=O)[O-])c2)c1 | 104 to 107
57 | CNS(=O)(=O)c1ccc(-c2ccc3oc(C4CCN(C(=O)OC(C)C)CC4)nc3c2)cc1 | 179 to 181
58 | O=C1C(O)N=C(c2ccccc2F)c2ccccc2N1C1CCNCC1 (stereo unspecified) | 190 to 192
59 | Cc1ccc(C(=O)N(C)C)cc1-c1nc(NCCNC(C)C)nc2c1CNC(=O)N2c1c(F)cccc1F | 130 to 133
60 | O=C(O)CSc1cccc2c1S(=S)N=N2 (stereo unspecified) | 207 to 209
61 | COCOc1ccc(C=CC(=O)c2c(OC)cc(OC)c(CC=C(C)C)c2O)cc1OC | 126 to 127
62 | c1cn(CCC23CC4CC(CC(C4)C2)C3)cn1 | 64 to 65
63 | Cc1ncc2cc(-c3c(Cl)cccc3Cl)c(NC(=O)c3ccco3)nc2n1 | 228 to 230
64 | CCCCNCP(=O)(O)O | 236 to 240
65 | COc1ccc(CC(=O)Nc2ccc3c(c2)[C@@H](OCCc2ccccc2)[C@H](O)C(C)(C)O3)cc1 (relative stereo) | 161 to 162
66 | COC(=O)C=C1CN=C(c2ccccc2Cl)c2cc(Cl)ccc2N1 | 154 to 158
67 | CN(CCC(Oc1ccc(C(=O)c2cc3ccccc3s2)cc1)c1ccc(Cl)cc1)CC(=O)O (stereo unspecified) | 101 to 112
68 | O=C(CCCN1CCC(c2ccccc2Cc2ccccc2)CC1)c1ccc(F)cc1 | 100 to 102
69 | CC(C)c1cn2ccccc2c1S(=O)(=O)c1ccc(OCCCN2CCN(C(c3ccccc3)c3ccccc3)CC2)cc1 | 170
70 | CNC(=O)N(O)C(C)c1ccc(C(F)(F)F)cc1 (stereo unspecified) | 124 to 125
71 | COc1ccc(Sc2cnnc3ccccc23)cc1 | 163
72 | CC(CCC(=O)N(C)C)C1CC=C2C3=C(CCC21C)C1(C)CCC(O)C(C)(C)C1CC3 (stereo unspecified) | 192 to 195
73 | CCn1cc(C(=O)O)c(=O)c2cc(F)c(N3CCNC(c4cc[nH]c4)C3)cc21 (stereo unspecified) | 220
74 | CC(=O)NC(=Cc1ccc(C#N)cc1)C(=O)N[C@H](C(=O)O)C1CCCCC1 | 196 to 198
75 | Cc1cc2c(-c3ccccc3Cl)c(N)c(=O)n(C)c2cc1C | 242 to 243
76 | O=C(O)COc1ccc2c(c1)Nc1ccccc1S2 | 180 to 181
77 | Clc1ncnc(Cl)c1C1OCCO1 | 108 to 110
78 | CCCCOc1ccc2nc(C(=O)NCC(=O)O)c(O)cc2c1 | 180 to 182

Row | Structure (SMILES) | melting point [°C]
79 | CCS(=O)(=O)N(C)C1c2cc(Cl)cc(Cl)c2OC(C)(C)C1OC(C)=O (stereo unspecified) | 136 to 137
80 | CSc1ccc(C(=O)Nc2ccccc2)cc1N | 143 to 145
81 | N#Cc1ccc(C(=O)N2CCN(NC(=O)c3ccc(F)cc3)CC2)cc1 | 222 to 224
82 | CC(=O)N1CCc2cc(-c3ccc4c(c3)CC[C@H]3N(C)C(=O)CC[C@]43C)ccc21 | 197 to 200
83 | O=C1CCC(c2ccc(-n3cccc3)cc2)=NN1 | 222 to 223
84 | O=CC1=C(Cl)c2cccc(Cl)c2CC1 | 83.5 to 84
85 | CN1CCN(c2ncccc2OC2CCN(c3ccc(Br)cc3)C2=O)CC1 (stereo unspecified) | 72 to 82
86 | COc1cc(C(=O)N2CCN(C(=O)C3=Cc4cc(C)c(C)cc4OCC3)CC2)cc(OC)c1OC | 177 to 178
87 | CC(=O)N1CCc2c(c3ccc(-n4ccc(OCc5ccccc5)cc4=O)nc3n2C)C1 | 206 to 208
88 | COc1cccc(CC(=O)O)c1OCCCc1cn(-c2ccccn2)nc1C(C)C | 102 to 104
89 | CCCN(CCC)C(C)(C)CC(C)(C)C | 43 to 45
90 | Cc1nnc2ccc(-c3cccc(NC(=O)C(C)(C)C)c3)nn12 | 256 to 258
91 | CNC(=Nc1cccc(C(F)(F)F)c1)C(C)C | 52 to 54
92 | O=C(Nc1ccc(OCCN2CCOCC2)c2ccccc12)c1cccc(N2CCCCC2)c1 | 147 to 148
93 | Cc1cccc(NC(=O)NCC(=O)N(CC(=O)N(C)c2ccc(F)cc2F)c2ccccc2)c1 | 100
94 | CCC(CC)c1nnc(NC)n(N)c1=O | 119 to 120
95 | N#Cc1nc(SCc2cnn(-c3c(Cl)cc(C(F)(F)F)cc3Cl)n2)n(Cc2ccccc2)c1C#N | 132
96 | CCc1c(Oc2cc(C)cc(C)c2)n(C/C=C/CO)c(=O)[nH]c1=O | 125 to 126
97 | CC(C)Oc1cc(N2C(=O)C3CCCCN3C2=O)c(F)cc1Cl (stereo unspecified) | 60.5 to 64.5
98 | COc1ccc(COCc2nc(C(C)C)c(I)[nH]2)cc1 | 78 to 79
99 | CS(=O)(=O)c1ccc(C(Cc2ccccc2)C(=O)Nc2nc3ccccc3o2)cc1 (stereo unspecified) | 118 to 119
100 | Cc1cc(C)cc(N2CCN(Cc3ncn(C(c4ccccc4)(c4ccccc4)c4ccccc4)c3C)C2=O)c1 | 199 to 202
101 | C1=C(/C=C/c2ccsc2)CCN(Cc2nc3ccccc3[nH]2)C1 | 216 to 218
